# Results as given in article PMC6753678, “Fueling Open Innovation for Malaria Transmission-Blocking Drugs: Hundreds of Molecules Targeting Early Parasite Mosquito Stages” (Frontiers in Microbiology, 2019).
# Like-named read-outs stand apart in the source and are kept apart here.
# What was measured:
# [1] = test system: P. falciparum late stage (stages IV-V) gametocytes; test: P. falciparum late stage gametocyte ATP depletion assay (Pf GC-ATP); conditions: 1: YES; 0: NO
# [2] = test system: P. falciparum late stage (stages IV-V) gametocytes; parameters: method as in Almela et al 2016; conditions: ref Almela et al 2016, read-out: Pf GCT ATP IC50, cited from earlier work
# [3] = test system: HepG2 cells; conditions: cited from earlier work
# [4] = test system: P. falciparum female gametocytes; parameters: method as in Miguel-Blanco et al 2017; conditions: TCAMS screen comparison; ref Miguel-Blanco et al 2017; read-out: Pf FGAA IC50; cited from earlier work
# [5] = test system: P. falciparum female gametocytes; test: P. falciparum female gametogenesis assay (Pf FGAA); conditions: 1: YES; 0: NO
# [6] = test system: HepG2 cells; test: HepG2 cytotoxicity assay; conditions: for IC50: read-out: HepG2 cytotoxicity assay IC50, dose response confirmation
# In short: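 HepG2 cells, 2,500 per well in MEM with 10% FBS and 1% NEAA, exposed to compounds for 48 h at 37°C, 5% CO2. Viability read by fluorescence; percent inhibition relative to 50 μM doxorubicin and DMSO controls.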
# [7] = test system: P. berghei ookinete development; conditions: for % inhibition, Replicate A / % inhibition, Replicate B: primary screen at 1 μM
# [8] = test system: 3D7-strain P. falciparum asexual parasites; test: P. falciparum asexual growth inhibition assay (Pf GIA); format: cell-based, Plasmodium falciparum; conditions: dose response confirmation; read-out: Pf asexual growth inhibition assays IC50
# In short: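 Parasites at 0.25% parasitemia, 2% hematocrit in Albumax-supplemented RPMI were exposed to compounds in dose response for 72 h at 37°C under 5% CO2/5% O2. Viability was read as LDH activity (NBT/diaphorase, A650 after freeze-thaw). Percent inhibition was calculated against chloroquine and DMSO controls, mean of three biological replicates.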
# [9] = value reported with the Pf GCT ATP screen, ref Almela et al 2016
# [10] = HepG2 cytotoxicity unified across the three screens
# [11] = read-out: Pb ODA IC50, this manuscript
# [12] = read-out: Pb Ookinete development assay IC50, dose response confirmation
# [13] = HepG2 values of the three screens unified
SMILES,Is compound selective in assay? Pf GC-ATP active? [1],IC50 ([2]; TCAMS screen comparison) [nM],"HepG2 cytoxicity [3, 9] [µM]",IC50 [4] [nM],Is compound selective in assay? Pf FGAA active? [5],"Unified cytotox [6, 10] [µM]","HepG2 cytoxicity ([3]; value reported with the Pf FGAA screen, ref Miguel-Blanco et al 2017) [µM]","Is compound selective in assay? Pb ODA active? ([7]; 1: YES, 0: NO)","% inhibition, Replicate A [7] [%]","% inhibition, Replicate B [7] [%]","IC50 [7, 11] [nM]","IC50 [7, 12] [nM]",IC50 [2] [nM],HepG2 cytoxicity (Pf GCT ATP screen) ([3]; ref Almela et al 2016) [µM],"HepG2 cytoxicity (Pb ODA, this manuscript) [6] [µM]","Unified cytotox [6, 13] [µM]",IC50 [6] [nM],IC50 [8] [nM],Is compound selective in assay? Pb ODA active? [7]
CNC(=S)NN=C(C)c1ccccn1 [TCMDC-123475],1 (1: YES),1170,>25,14,1 (1: YES),25.00,,,,,,,,,,,,,
COc1ccc(C[C@H](N)C(=O)N[C@H]2[C@@H](O)[C@H](n3cnc4c(N(C)C)ncnc43)O[C@@H]2CO)cc1 [TCMDC-123493],0 (0: NO),560,2.95,290,0 (0: NO),2.37,1.80,,,,,,,,,,,,
CN1c2ccc([N+](=O)[O-])cc2C(C)(C)C12C=Cc1cc(Br)cc([N+](=O)[O-])c1O2 (centres unmarked) [TCMDC-124178],1 (1: YES),,,,,,,1 (1: YES),65.23,65.28,1600,1600,1090,>25,29.17,29.17,29200,197,
Cl.Cl.c1ccc2c(NCCCCCCNc3c4ccccc4nc4ccccc34)c3ccccc3nc2c1 [TCMDC-124285],1 (1: YES),,,,,,,0 (0: NO),78.92,53.92,1500,1500,250,7,8.13,7.56,8130,532,
Cc1ccc(C)c(CC(=O)N2CCC(n3c(C)nc4ccc(F)cc43)CC2)c1 [TCMDC-124790],1 (1: YES),,,,,,,1 (1: YES),55.29,63.09,3660,3660,920,>25,57.54,57.54,57500,252,
COc1cccc(CC(=O)N2CCC(n3c(C)nc4ccc(C)cc43)CC2)c1 [TCMDC-124791],1 (1: YES),,,,,,,1 (1: YES),79.91,77.59,1120,1120,470,>25,,100.00,100000,98,
Cc1[nH]c2ccccc2c1C(=O)C(C)Sc1n[nH]c(-c2ccccc2Br)n1 (centres unmarked) [TCMDC-125114],1 (1: YES),,,,,,,1 (1: YES),114.44,73.49,170,174,670,49.31,,74.66,100000,57,
COc1cccc(NC(=O)[C@H](C(C)C)n2c(=O)[nH]c3ccccc3c2=O)c1 [TCMDC-125133],1 (1: YES),,,,,,,1 (1: YES),62.00,73.38,,1530,540,>50,,100.00,100000,170,
CCOc1ccc(-c2nonc2NC(=O)c2cccc(Cl)c2)cc1OCC [TCMDC-125200],1 (1: YES),,,,,,,0 (0: NO),62.08,54.18,6230,6230,840,>25,19.50,19.50,19500,156,
COc1ccc(C[C@H]2NC[C@H](O)[C@H]2OC(C)=O)cc1 [TCMDC-125504],0 (0: NO),,,,,,,,102.72,96.40,210,215,170,0.19,2.29,1.24,2290,54,0 (key: 1: YES; 0: NO)
COCCn1c(-c2cccc(Cl)c2)nn(-c2ccc([N+](=O)[O-])cc2C#N)c1=S [TCMDC-134719],1 (1: YES),,,,,,,1 (1: YES),64.09,78.69,1840,1840,2780,>25,,100.00,100000,403,
CCOCn1c(-c2ccccc2)cc2c3c(N)nc(N)nc3ccc21 [TCMDC-137979],0 (0: NO),,,,,,,0 (0: NO),30.79,81.58,7500,7500,1300,5.65,4.79,5.22,4790,180,
C=CC(C)C1OC(=O)c2cc(OC)cc(OC)c21 (centres unmarked) [TCMDC-138676],0 (0: NO),,,,,,,0 (0: NO),44.05,73.82,490,489,400,0.8,1.22,1.01,1220,259,
Cc1cc(F)ccc1-c1nc(NCC(O)CNCCc2ccccc2)nc2c1ccc(=O)n2-c1c(F)cccc1F.O=C(O)C(F)(F)F (centres unmarked) [TCMDC-141784],1 (1: YES),,,,,,,0 (0: NO),54.07,33.72,3850,3850,230,8.47,14.79,11.63,14800,451,
O=c1c(Br)ccccc1Br [TCMDC-142246],1 (1: YES),,,,,,,1 (1: YES),52.58,94.32,930,933,210,12.6,14.79,13.70,14800,2070,
